The text below walks through data of patent publication US6335350B1, “Acetamide and substituted acetamide-containing thiourea inhibitors of herpes viruses” (American Home Products Corporation, priority 1998, dated 2002).

Assay [1] has as its system HCMV wild-type. In words: HCMV yield assay. The class given is cell-based, human cytomegalovirus. Particulars: human foreskin fibroblasts; for IC50: Human betaherpesvirus 5, Fibroblast, read-out: IC50 Ug/ml HCMV. Here is the method: Yield assay. Monolayer cultures of human foreskin fibroblasts are infected with HCMV wild-type, typically at a multiplicity of infection equal to 0.2, in the presence of inhibitor compound (varying concentrations). At three days post-infection, total virus produced in these cultures (i.e. virus yield) is assessed by harvesting and titering the virus in 12-well plates of cultured human foreskin fibroblasts (done in the absence of inhibitor). Plaques are quantified at 2 weeks post-infection. An inhibitor of HCMV is identified by the reduction in titer of virus yield in the presence, compared to the titer in the absence of compound. In this assay, the relative anti-HCMV activity of an inhibitor is typically determined by calculating the IC50 or IC90 value, that is, the amount of compound required to reduce the virus yield by 50% or 90%, respectively. Table I describes IC50 data for compounds tested against HCMV.

For assay [2], the system named is HSV-1. Briefly: HSV Antiviral (ELISA) Assay. Particulars: Vero cells, HSV-1; for IC50: Human alphaherpesvirus 1, Vero, read-out: IC50 Ug/ml HSV. The class given is cell-based, herpes simplex virus type 1. Here is the method: Vero cells (ATCC #CCL-81) are plated on 96-well tissue culture plates at 3.5×10^4 cells per 100 μl tissue culture DMEM (Dulbecco's modified Eagle media) supplemented with 2% fetal bovine serum (FBS) in each well. After overnight incubation @ 37° C. (in 5% CO2) and 30 minutes prior to infection with HSV-1 (multiplicity of infection equal to 0.006), cells are either untreated, or treated with test compound (multiple concentrations) or reference standard drug control. After approximately 24 hours post-infection incubation @ 37° C. (in 5% CO2), cells are fixed for ELISA assay. The primary antibody is murine anti-HSV glycoprotein D monoclonal primary antibody and the secondary antibody is goat anti-mouse IgG linked to β-galactosidase. Thus the extent of viral replication is determined by assessing β-galactosidase activity by quantifying the generation of the 4-methyl umbelliferone fluorescent cleavage product after addition of the methyl umbelliferyl-β-D-galactoside (Sigma #M1633) substrate on a microfluorimeter (365 nm for excitation and 450 nm for emission). Antiviral activity (IC50) of the test compound is determined by comparing the flourescence obtained in absence of compound to that obtained in the presence of compound.
(In general: In an ELISA, binding on a coated surface is turned into a signal by an enzyme label.)

Assay [3] concerns VZV strain Ellen. Briefly: VZV Antiviral (ELISA) Assay. The class given is cell-based, varicella-zoster virus. Particulars: Human alphaherpesvirus 3, Fibroblast, human foreskin fibroblast cells; for IC50: read-out: IC50 Ug/ml VZV; for inhibition at 10 µg/mL: read-out: % inhibition 10 ug/ml VZV, 10 ug/ml. Here is the method:
For the generation of stock VZV to be used in the assay, VZV strain Ellen (ATCC #VR-1367) is used to infect human foreskin fibroblast (HFF) cells at low multiplicity (less than 0.1) and incubated overnight at 37° C. in 5% CO2. After the overnight incubation, the mixture of uninfected and VZV-infected HFF infected cells are then harvested and added to each well of 96-well plates (3.5×10^4 cells in 100 μl DMEM supplemented with 2% FBS) which contain test compound or the reference standard drug control (in 100 μl DMEM supplemented with 2% FBS per well). These cells are incubated for three days at 37° C. in 5% CO2, then fixed for ELISA assay. The primary antibody is murine anti-VZV glycoprotein II monoclonal antibody (Applied Biosystems, Inc. #13-145-100) and the secondary antibody is goat anti-mouse IgG linked to β-galactosidase. Thus the extent of viral replication is determined by assessing β-galactosidase activity by quantifying the generation of the 4-methyl umbelliferone fluorescent cleavage product after addition of the methyl umbelliferyl-β-D-galactoside (Sigma #M1633) substrate on a microfluorimeter (365 nm for excitation and 450 nm for emission). Antiviral activity (IC50) of the test compound is determined by comparing the flourescence obtained in absence of compound to that obtained in the presence of compound.

Values after ≈ are worked out from the molar mass of the structure shown.

`COc1cc(OC)c(NC(=S)Nc2ccc(N(C)C(C)=O)cc2)cc1Cl` [Example 99, N-{4-[3-(5-Chloro-2,4-dimethoxy-phenyl)-thioureido]-phenyl}-N-methyl-acetamide]: the IC50 in assay [1] was over 50 µg/mL; in assay [2], 50 µg/mL (≈ 127 µM); in assay [3], over 10 µg/mL. In addition, the inhibition at 10 µg/mL in assay [3] worked out at 2%.

`COc1cc(OC)c(NC(=S)Nc2cccc(NC(C)=O)c2)cc1Cl` [Example 100, N-{3-[3-(5-Chloro-2,4-dimethoxy-phenyl)-thioureido]-phenyl}-acetamide]: the values for the IC50 in assay [1], in assay [2] and in assay [3] were over 50 µg/mL, 40 µg/mL (≈ 105 µM) and over 10 µg/mL, respectively. In addition, the inhibition at 10 µg/mL in assay [3] worked out at 19%.

On to `COc1ccc(NC(=S)Nc2ccc(NC(C)=O)cc2)c(OC)c1` [Example 103, N-{4-[3-(2,4-Dimethoxy-phenyl)-thioureido]-phenyl}-acetamide], for which the values for the IC50 in assay [1], in assay [2] and in assay [3] were over 50 µg/mL, 25 µg/mL (≈ 72.4 µM) and over 10 µg/mL, respectively. Further, in assay [3], the inhibition at 10 µg/mL is 28%.

Consider `COc1ccc(NC(=S)Nc2ccc(NC(C)=O)cc2)cc1` [Example 104, N-{4-[3-(4-Methoxy-phenyl)-thioureido]-phenyl}-acetamide], for which the IC50 was over 50 µg/mL in assay [1], over 50 µg/mL in assay [2] and over 10 µg/mL in assay [3]. For the same molecule, the inhibition at 10 µg/mL in assay [3] was determined as 8%.

On to `COc1ccccc1NC(=S)Nc1ccc(NC(C)=O)cc1` [Example 105, N-{4-[3-(2-Methoxy-phenyl)-thioureido]-phenyl}-acetamide], for which the IC50 in assay [1] was over 50 µg/mL; in assay [2], over 50 µg/mL; in assay [3], over 10 µg/mL. The inhibition at 10 µg/mL in assay [3] came to 32%.

Take `COc1ccc(NC(=S)Nc2ccc(NC(C)=O)cc2)cc1Cl` [Example 106, N-{4-[3-(3-Chloro-4-methoxy-phenyl)-thioureido]-phenyl}-acetamide]: the results for the IC50 in assay [1], in assay [2] and in assay [3] were 7 µg/mL (≈ 20 µM), 3 µg/mL (≈ 8.58 µM) and over 10 µg/mL, respectively. In assay [3], the inhibition at 10 µg/mL was 20%.

As for `COc1ccc(Cl)cc1NC(=S)Nc1ccc(NC(C)=O)cc1` [Example 107, N-{4-[3-(5-Chloro-2-methoxy-phenyl)-thioureido]-phenyl}-acetamide], the IC50 in assay [1] is over 50 µg/mL; in assay [2] it was over 50 µg/mL; in assay [3] it was over 10 µg/mL. For the same molecule, in assay [3], the inhibition at 10 µg/mL turned out to be 20%.

On to `CC(=O)Nc1ccc(NC(=S)Nc2cc(Cl)c(O)c(Cl)c2)cc1` [Example 108, N-{4-[3-(3,5-Dichloro-4-hydroxy-phenyl)-thioureido]-phenyl}-acetamide], for which the IC50 was over 50 µg/mL in assay [1], 50 µg/mL (≈ 135 µM) in assay [2] and over 10 µg/mL in assay [3]. Further, the inhibition at 10 µg/mL in assay [3] was 28%.

In the case of `COc1c(Cl)cc(NC(=S)Nc2ccc(NC(C)=O)cc2)cc1Cl` [Example 109, N-{4-[3-(3,5-Dichloro-4-methoxy-phenyl)-thioureido]-phenyl}-acetamide], the IC50 in assay [1] was 0.4 µg/mL (≈ 1.04 µM); in assay [2] it was over 10 µg/mL; in assay [3], over 10 µg/mL. The inhibition at 10 µg/mL in assay [3] is 27%.

On to `CC(NC(=S)Nc1ccc(NC(=O)Cc2ccccc2)cc1)c1ccc(F)cc1` (centres unmarked) [Example 751, N-(4-{3-[1-(4-Fluoro-phenyl)-ethyl]-thioureido}-phenyl)-2-phenyl-acetamide], for which the IC50 in assay [1] is over 0.5 µg/mL; in assay [2] it was over 10 µg/mL.

Regarding `CCC(=O)Nc1ccc(NC(=S)NC(C)c2ccc(F)cc2)cc1` (centres unmarked) [Example 813, N-(4-{3-[1-(4-Fluoro-phenyl)-ethyl]-thioureido}-phenyl)-propionamide], in assay [3], the IC50 was 3.5 µg/mL (≈ 10.1 µM).

Take “N-(4-{3-[1-(4-Fluoro-phenyl)-ethyl]-thioureido}-phenyl)-acetamide [Example 744]”: the “IC50 Ug/ml HCMV” value in assay [1] is recorded as over 0.5 Ug/ml. Moreover, in assay [2], the “IC50 Ug/ml HSV” value was over 10 Ug/ml.
